Data reported in ChEMBL document CHEMBL6109078, “Pyrylium derivatives as outer membrane permeabilizers against MDR gram-negative bacteria via multi-target mode of action” (Eur J Med Chem, 2025).
Values after ≈ are worked out from the molar mass of the structure shown. Bridge positions count the residues as written; N and C are the ends. Square brackets hold non-standard residues; d marks the D form. Peptide text beside a SMILES is read from it. * marks the point of attachment. X1 = CC[C@H](C)CCCCC(=O)*; Dab = NCC[C@H](N)C(=O)O

Legend:
Escherichia coli [1] = assay: Antibacterial activity against ESBL positive Escherichia coli ATCC 35218 assessed as inhibition of bacterial growth by CLSI protocol based method; format: functional
Acinetobacter baumannii [2] = assay: Antibacterial activity against multi-drug resistant Acinetobacter baumannii clinical isolate 51 assessed as inhibition of bacterial growth by CLSI protocol based method; format: functional
Escherichia coli [3] = assay: Antibacterial activity against Escherichia coli CG-4 expressing MCR-1 and NDM-1 assessed as inhibition of bacterial growth by CLSI protocol based method; format: functional
Pseudomonas aeruginosa [4] = assay: Antibacterial activity Pseudomonas aeruginosa ATCC 27853 assessed as inhibition of bacterial growth by CLSI protocol based method; format: functional
Acinetobacter baumannii [5] = assay: Antibacterial activity against multi-drug resistant Acinetobacter baumannii clinical isolate 10 assessed as inhibition of bacterial growth by CLSI protocol based method; format: functional
Acinetobacter baumannii [6] = assay: Antibacterial activity against Acinetobacter baumannii ATCC 19606 assessed as inhibition of bacterial growth by CLSI protocol based method; format: functional
Acinetobacter baumannii [7] = assay: Antibacterial activity against multi-drug resistant Acinetobacter baumannii clinical isolate 4 assessed as inhibition of bacterial growth by CLSI protocol based method; format: functional
Klebsiella pneumoniae [8] = assay: Antibacterial activity against Klebsiella pneumoniae BAA ATCC 1706 assessed as inhibition of bacterial growth by CLSI protocol based method; format: functional
Acinetobacter baumannii [9] = assay: Antibacterial activity against multi-drug resistant Acinetobacter baumannii clinical isolate 43 assessed as inhibition of bacterial growth by CLSI protocol based method; format: functional
Escherichia coli [10] = assay: Antibacterial activity against multi-drug resistant Escherichia coli clinical isolate 1 assessed as inhibition of bacterial growth by CLSI protocol based method; format: functional
Acinetobacter baumannii [11] = assay: Antibacterial activity against multi-drug resistant Acinetobacter baumannii clinical isolate 14 assessed as inhibition of bacterial growth by CLSI protocol based method; format: functional
Acinetobacter baumannii [12] = assay: Antibacterial activity against multi-drug resistant Acinetobacter baumannii clinical isolate 5 assessed as inhibition of bacterial growth by CLSI protocol based method; format: functional
Pseudomonas aeruginosa [13] = assay: Antibacterial activity Pseudomonas aeruginosa PAO1 assessed as inhibition of bacterial growth by CLSI protocol based method; format: functional
Acinetobacter baumannii [14] = assay: Antibacterial activity against multi-drug resistant Acinetobacter baumannii clinical isolate 1 assessed as inhibition of bacterial growth by CLSI protocol based method; format: functional
Escherichia coli [15] = assay: Antibacterial activity against Escherichia coli ATCC 25922 assessed as inhibition of bacterial growth by CLSI protocol based method; format: functional
Klebsiella pneumoniae [16] = assay: Antibacterial activity against Klebsiella pneumoniae ATCC 700603 assessed as inhibition of bacterial growth by CLSI protocol based method; format: functional
Acinetobacter baumannii [17] = assay: Antibacterial activity against multi-drug resistant Acinetobacter baumannii clinical isolate 2 assessed as inhibition of bacterial growth by CLSI protocol based method; format: functional
Escherichia coli [18] = assay: Synergistic antibacterial activity against Escherichia coli ATCC 35218 assessed as fractional inhibitory concentration index in presence of polymyxin B by checkerboard assay; format: functional
Acinetobacter baumannii [19] = assay: Synergistic antibacterial activity against multi-drug resistant Acinetobacter baumannii clinical isolate 1 assessed as inhibition of bacterial growth by measuring polymyxin B MIC by checkerboard assay; format: functional
Acinetobacter baumannii [20] = assay: Synergistic antibacterial activity against multi-drug resistant Acinetobacter baumannii clinical isolate 1 assessed as inhibition of bacterial growth in presence of polymyxin B by checkerboard assay; format: functional
[21] = Binding affinity to His-tagged LptA (unknown origin) extracted from Escherichia coli BL21 (DE3) cells assessed as dissociation constant by BLI analysis; parameters: species or system Bacteria
Escherichia coli [22] = assay: Synergistic antibacterial activity against multi-drug resistant Escherichia coli clinical isolate 1 assessed as fractional inhibitory concentration index in presence of polymyxin B by checkerboard assay; format: functional
Escherichia coli [23] = assay: Synergistic antibacterial activity against Escherichia coli CG-4 expressing MCR-1 and NDM-1 assessed as inhibition of bacterial growth by measuring polymyxin B MIC by checkerboard assay; format: functional
Acinetobacter baumannii [24] = assay: Synergistic antibacterial activity against multi-drug resistant Acinetobacter baumannii clinical isolate 1 assessed as fractional inhibitory concentration index in presence of polymyxin B by checkerboard assay; format: functional
Acinetobacter baumannii [25] = assay: Synergistic antibacterial activity against multi-drug resistant Acinetobacter baumannii clinical isolate 43 assessed as inhibition of bacterial growth in presence of polymyxin B by checkerboard assay; format: functional
Escherichia coli [26] = assay: Synergistic antibacterial activity against Escherichia coli CG-4 expressing MCR-1 and NDM-1 assessed as inhibition of bacterial growth in presence of polymyxin B by checkerboard assay; format: functional
Acinetobacter baumannii [27] = assay: Synergistic antibacterial activity against multi-drug resistant Acinetobacter baumannii clinical isolate 43 assessed as fractional inhibitory concentration index in presence of polymyxin B by checkerboard assay; format: functional
Escherichia coli [28] = assay: Synergistic antibacterial activity against multi-drug resistant Escherichia coli clinical isolate 1 assessed as inhibition of bacterial growth by measuring polymyxin B MIC by checkerboard assay; format: functional
Acinetobacter baumannii [29] = assay: Synergistic antibacterial activity against Acinetobacter baumannii ATCC 19606 assessed as fractional inhibitory concentration index in presence of polymyxin B by checkerboard assay; format: functional
Escherichia coli [30] = assay: Synergistic antibacterial activity against Escherichia coli CG-4 expressing MCR-1 and NDM-1 assessed as fractional inhibitory concentration index in presence of polymyxin B by checkerboard assay; format: functional
Acinetobacter baumannii [31] = assay: Synergistic antibacterial activity against multi-drug resistant Acinetobacter baumannii clinical isolate 14 assessed as inhibition of bacterial growth by measuring polymyxin B MIC by checkerboard assay; format: functional
Escherichia coli [32] = assay: Synergistic antibacterial activity against Escherichia coli ATCC 35218 assessed as inhibition of bacterial growth in presence of polymyxin B by checkerboard assay; format: functional
Acinetobacter baumannii [33] = assay: Synergistic antibacterial activity against multi-drug resistant Acinetobacter baumannii clinical isolate 14 assessed as inhibition of bacterial growth in presence of polymyxin B by checkerboard assay; format: functional
Escherichia coli [34] = assay: Synergistic antibacterial activity against Escherichia coli ATCC 35218 assessed as inhibition of bacterial growth by measuring polymyxin B MIC by checkerboard assay; format: functional; conditions: Escherichia coli, ATCC 35218; read-out: MIC
Escherichia coli [35] = assay: Synergistic antibacterial activity against multi-drug resistant Escherichia coli clinical isolate 1 assessed as inhibition of bacterial growth in presence of polymyxin B by checkerboard assay; format: functional
Escherichia coli [36] = assay: Synergistic antibacterial activity against Escherichia coli ATCC 25922 assessed as inhibition of bacterial growth in presence of polymyxin B by checkerboard assay; format: functional
Escherichia coli [37] = assay: Synergistic antibacterial activity against Escherichia coli ATCC 25922 assessed as inhibition of bacterial growth by measuring polymyxin B MIC by checkerboard assay; format: functional
[38] = Binding affinity to His-tagged LptC (unknown origin) extracted from Escherichia coli BL21 (DE3) cells assessed as dissociation constant by BLI analysis; parameters: species or system Bacteria
Escherichia coli [39] = assay: Synergistic antibacterial activity against Escherichia coli ATCC 25922 assessed as fractional inhibitory concentration index in presence of polymyxin B by checkerboard assay; format: functional
Acinetobacter baumannii [40] = assay: Synergistic antibacterial activity against Acinetobacter baumannii ATCC 19606 assessed as inhibition of bacterial growth in presence of polymyxin B by checkerboard assay; format: functional
Acinetobacter baumannii [41] = assay: Synergistic antibacterial activity against Acinetobacter baumannii ATCC 19606 assessed as inhibition of bacterial growth by measuring polymyxin B MIC by checkerboard assay; format: functional
Acinetobacter baumannii [42] = assay: Synergistic antibacterial activity against multi-drug resistant Acinetobacter baumannii clinical isolate 43 assessed as inhibition of bacterial growth by measuring polymyxin B MIC by checkerboard assay; format: functional
Acinetobacter baumannii [43] = assay: Synergistic antibacterial activity against multi-drug resistant Acinetobacter baumannii clinical isolate 5 assessed as inhibition of bacterial growth in presence of polymyxin B by checkerboard assay; format: functional
Acinetobacter baumannii [44] = assay: Synergistic antibacterial activity against multi-drug resistant Acinetobacter baumannii clinical isolate 5 assessed as inhibition of bacterial growth by measuring polymyxin B MIC by checkerboard assay; format: functional
Acinetobacter baumannii [45] = assay: Antibacterial activity against Acinetobacter baumannii ATCC 19606 infected in Galleria mellonella larvae assessed as survival rate of larvae at 1 microg/ml measured after 96 hrs relative to control; format: functional
Escherichia coli [46] = assay: Antibacterial activity against Escherichia coli ATCC 25922 infected in Galleria mellonella larvae assessed as survival rate of larvae at 1 microg/ml relative to control; format: functional

NCC[C@H](O)C(=O)N[C@@H]1C[C@H](N)[C@@H](O[C@H]2O[C@H](CN)[C@@H](O)[C@H](O)[C@H]2O)[C@H](O)[C@H]1O[C@H]1O[C@H](CO)[C@@H](O)[C@H](N)[C@H]1O [AMIKACIN]
MIC (Escherichia coli [1]): 1.56 µg/mL (≈ 2.66 µM)
MIC (Acinetobacter baumannii [2]): > 100 µg/mL
MIC (Escherichia coli [3]): 100 µg/mL (≈ 171 µM)
MIC (Pseudomonas aeruginosa [4]): 0.78 µg/mL (≈ 1.33 µM)
MIC (Acinetobacter baumannii [5]): > 100 µg/mL
MIC (Acinetobacter baumannii [6]): 0.78 µg/mL (≈ 1.33 µM)
MIC (Acinetobacter baumannii [7]): > 100 µg/mL
MIC (Klebsiella pneumoniae [8]): 50 µg/mL (≈ 85.4 µM)
MIC (Acinetobacter baumannii [9]): > 100 µg/mL
MIC (Escherichia coli [10]): > 100 µg/mL
MIC (Acinetobacter baumannii [11]): 50 µg/mL (≈ 85.4 µM)
MIC (Acinetobacter baumannii [12]): > 100 µg/mL
MIC (Pseudomonas aeruginosa [13]): 0.2 µg/mL (≈ 0.342 µM)
MIC (Acinetobacter baumannii [14]): > 100 µg/mL
MIC (Escherichia coli [15]): 6.25 µg/mL (≈ 10.7 µM)
MIC (Klebsiella pneumoniae [16]): 0.78 µg/mL (≈ 1.33 µM)
MIC (Acinetobacter baumannii [17]): > 100 µg/mL

CN(C)c1ccc(/C=C/c2cc(C(C)(C)C)[o+]c(C(C)(C)C)c2)cc1.O=S(=O)([O-])C(F)(F)F
fractional inhibitory concentration index (FICI) (Escherichia coli [18]): 0.375
MIC (Escherichia coli [1]): 12.5 µg/mL
MIC (Acinetobacter baumannii [19]): 0.05 µg/mL
MIC (Acinetobacter baumannii [20]): 3.13 µg/mL
MIC (Acinetobacter baumannii [2]): 50 µg/mL
Kd [21]: 160 µM
fractional inhibitory concentration index (FICI) (Escherichia coli [22]): 0.047
MIC (Escherichia coli [23]): 0.39 µg/mL
MIC (Escherichia coli [3]): 25 µg/mL
MIC (Pseudomonas aeruginosa [4]): > 100 µg/mL
fractional inhibitory concentration index (FICI) (Acinetobacter baumannii [24]): <0.032
MIC (Acinetobacter baumannii [25]): 12.5 µg/mL
MIC (Escherichia coli [26]): 3.13 µg/mL
MIC (Acinetobacter baumannii [5]): 25 µg/mL
MIC (Acinetobacter baumannii [6]): 12.5 µg/mL
MIC (Acinetobacter baumannii [7]): 25 µg/mL
fractional inhibitory concentration index (FICI) (Acinetobacter baumannii [27]): <0.25
MIC (Escherichia coli [28]): 0.2 µg/mL
fractional inhibitory concentration index (FICI) (Acinetobacter baumannii [29]): 0.188
MIC (Klebsiella pneumoniae [8]): > 100 µg/mL
fractional inhibitory concentration index (FICI) (Escherichia coli [30]): 0.188
MIC (Acinetobacter baumannii [31]): 0.006 µg/mL
MIC (Escherichia coli [32]): 1.56 µg/mL
MIC (Acinetobacter baumannii [33]): 6.25 µg/mL
MIC (Escherichia coli [34]): 0.25 µg/mL
MIC (Escherichia coli [35]): 3.13 µg/mL
MIC (Acinetobacter baumannii [9]): 50 µg/mL
MIC (Escherichia coli [36]): 6.25 µg/mL
MIC (Escherichia coli [37]): 7.8 10^-4 ug/ml
Kd [38]: 17 µM
fractional inhibitory concentration index (FICI) (Escherichia coli [39]): 0.266
MIC (Acinetobacter baumannii [40]): 1.56 µg/mL
MIC (Escherichia coli [10]): 100 µg/mL
MIC (Acinetobacter baumannii [11]): 25 µg/mL
MIC (Acinetobacter baumannii [12]): 50 µg/mL
MIC (Acinetobacter baumannii [41]): 0.006 µg/mL
MIC (Pseudomonas aeruginosa [13]): > 100 µg/mL
MIC (Acinetobacter baumannii [14]): 100 µg/mL
MIC (Acinetobacter baumannii [42]): 1 10^-4 ug/ml
MIC (Acinetobacter baumannii [43]): 12.5 µg/mL
MIC (Escherichia coli [15]): 12.5 µg/mL
MIC (Acinetobacter baumannii [44]): 0.006 µg/mL
MIC (Klebsiella pneumoniae [16]): > 100 µg/mL
MIC (Acinetobacter baumannii [17]): 25 µg/mL

CC(C)CCCCC(=O)N[C@@H](CCN)C(=O)N[C@H](C(=O)N[C@@H](CCN)C(=O)N[C@H]1CCNC(=O)[C@H]([C@@H](C)O)NC(=O)[C@H](CCN)NC(=O)[C@H](CCN)NC(=O)[C@H](CC(C)C)NC(=O)[C@@H](Cc2ccccc2)NC(=O)[C@H](CCN)NC1=O)[C@@H](C)O.CC[C@H](C)CCCCC(=O)N[C@@H](CCN)C(=O)N[C@H](C(=O)N[C@@H](CCN)C(=O)N[C@H]1CCNC(=O)[C@H]([C@@H](C)O)NC(=O)[C@H](CCN)NC(=O)[C@H](CCN)NC(=O)[C@H](CC(C)C)NC(=O)[C@@H](Cc2ccccc2)NC(=O)[C@H](CCN)NC1=O)[C@@H](C)O (X1-[Dab]T[Dab][Dab][Dab][dF]L[Dab][Dab]T; lactam 4-C)
MIC (Escherichia coli [1]): 0.1 µg/mL
MIC (Acinetobacter baumannii [2]): 0.78 µg/mL
MIC (Escherichia coli [3]): 6.25 µg/mL
MIC (Pseudomonas aeruginosa [4]): 6.25 µg/mL
MIC (Acinetobacter baumannii [5]): 0.05 µg/mL
MIC (Acinetobacter baumannii [6]): 0.05 µg/mL
MIC (Acinetobacter baumannii [7]): 0.39 µg/mL
MIC (Acinetobacter baumannii [9]): > 100 µg/mL
survival at 1 µg/mL (Acinetobacter baumannii [45]): 20%
MIC (Escherichia coli [10]): 12.5 µg/mL
MIC (Acinetobacter baumannii [11]): 0.39 µg/mL
MIC (Acinetobacter baumannii [12]): 0.05 µg/mL
survival at 1 µg/mL (Escherichia coli [46]): 40%
MIC (Acinetobacter baumannii [14]): > 100 µg/mL
MIC (Escherichia coli [15]): 0.05 µg/mL
MIC (Klebsiella pneumoniae [16]): 0.2 µg/mL
MIC (Acinetobacter baumannii [17]): 0.39 µg/mL
